Laboratory results taken from patent US9187426B2, “Organic compounds” (Novartis AG, priority 2008, dated 2015).
Counter-ions that a name gives are not always drawn.

What was measured:
[1] = molecular target: T1, Stearoyl-CoA Desaturase (SCD1) (Mus musculus, UniProt P13516); experiment: SCD microsomal assay: release of 3H2O from [9,10-3H]stearoyl-CoA in mouse liver microsomes; type: biochemical; settings: 15 min incubation, 25° C.
T1 construct: Reactions are started by adding 50 μL of microsomes (1.25 mg/mL); from tissue; host or cells: liver microsomes of male ICR outbred mice on a high-carbohydrate, low-fat diet
T1 sequence (P13516 1-355): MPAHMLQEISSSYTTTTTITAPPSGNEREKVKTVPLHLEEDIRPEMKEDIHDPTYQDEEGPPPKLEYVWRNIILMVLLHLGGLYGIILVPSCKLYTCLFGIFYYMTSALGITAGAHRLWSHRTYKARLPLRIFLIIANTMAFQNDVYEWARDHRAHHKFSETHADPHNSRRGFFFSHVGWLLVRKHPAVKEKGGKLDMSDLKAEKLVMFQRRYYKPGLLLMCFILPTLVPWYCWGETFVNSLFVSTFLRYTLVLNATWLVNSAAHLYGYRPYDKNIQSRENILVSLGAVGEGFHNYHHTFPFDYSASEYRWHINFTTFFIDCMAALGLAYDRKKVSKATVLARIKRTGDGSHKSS
Description: Measuring Stearoyl-CoA Desaturase Inhibition Activity of a Test Compound Using Mouse Liver Microsomes
The identification of compounds of the invention as SCD inhibitors was readily accomplished using the SCD microsomal assay procedure described in Shanklin J. and Summerville C., Proc. Natl. Acad. Sci. USA (1991), Vol. 88, pp. 2510-2514.
Male ICR outbread mice, on a high-carbohydrate, low fat diet, under light halothane (15% in mineral oil) anesthesia are sacrificed by exsanguination during periods of high enzyme activity. Livers are immediately rinsed with cold 0.9% NaCl solution, weighed and minced with scissors. All procedures are performed at 4° C. unless specified otherwise. Livers are homogenized in a solution (1/3 w/v) containing 0.25 M sucrose, 62 mM potassium phosphate buffer (pH 7.0), 0.15 M KCl, 15 mM N-acetyleysteine, 5 mM MgCl2, and 0.1 mM EDTA using 4 strokes of a Potter-Elvehjem tissue homogenizer. The homogenate is centrifuged at 10,400×g for 20 min to eliminate mitochondria and cellular debris. The supernatant is filtered through a 3-layer cheesecloth and centrifuged at 105,000×g for 60 min. The microsomal pellet is gently resuspended in the same homogenization solution with a small glass/teflon homogenizer and stored at −70° C. The absence of mitochondrial contamination is enzymatically assessed. The protein concentration is measured using bovine serum albumin as the standard.
Desaturase activity is measured as the release of ^3H2O from [9,10-^3H]stearoyl-CoA. Reactions per assay point conditions are as follows: 2 μL 1.5 mM stearoyl-CoA, 0.25 μL 1 mCi/mL ^3H stearoyl CoA, 10 μL 20 mM NADH, 36.75 μL 0.1 M PK buffer (K2HPO4/NaH2PO4, pH 7.2). The test compound or control solution is added in a 1 μL volume. Reactions are started by adding 50 μL of microsomes (1.25 mg/mL). The plates are mixed and after 15 min incubation on a heating block (25° C.), the reactions are stopped by the addition of 10 μL 60% PCA. An aliquot of 100 μL is then transferred to a filter plate pretreated with charcoal and the plate centrifuged at 4000 rpm for 1 minute. The flow through containing the ^3H2O released by the SCD1 desaturation reaction is added to scintillation fluid and the radioactivity measured in a Packard TopCount. The data is analysed to identify the IC50 for test compounds and reference compounds.

SMILES: COc1cccc(C(=O)Nc2cc(C(=O)NCc3ccccc3)ccn2)c1 [Example 6.4, N-benzyl-2-(3-methoxybenzamido)isonicotinamide]
- melting point: 95 to 96 °C
- IC50 [1]: 130 nM

SMILES: O=C(NCc1ccccc1)c1ccnc(NC(=O)c2cc(F)cc(F)c2)c1 [Example 6.8, N-benzyl-2-(3,5-difluorobenzamido)isonicotinamide]
- melting point: 185 to 187 °C
- IC50 [1]: 410 nM

SMILES: CN(C)c1ccc(C(=O)Nc2cc(C(=O)NCc3ccccc3)ccn2)cc1 [Example 6.11, N-benzyl-2-(4-(dimethylamino)benzamido)isonicotinamide]
- melting point: 160 to 165 °C
- IC50 [1]: 20 nM

SMILES: O=C(Nc1cc(-c2nc(Cc3ccccc3)c[nH]2)ccn1)c1ccccc1 [Example 10.2, N-(4-(4-benzyl-1H-imidazol-2-yl)pyridin-2-yl)benzamide]
- melting point: 110 to 112 °C
- IC50 [1]: 170 nM

SMILES: O=C(NCc1cocn1)c1ccnc(N2CCN(Cc3ccc(F)cc3)C2=O)c1 [Example 14, 2-(3-(4-fluorobenzyl)-2-oxoimidazolidin-1-yl)-N-(oxazol-4-ylmethyl)isonicotinamide]
- melting point: 197 to 199 °C
- IC50 [1]: 200 nM

SMILES: Cc1cnc(CNC(=O)c2ccnc(N3CCN(Cc4ccc(F)cc4)C3=O)c2)cn1 [Example 14.2, 2-(3-(4-fluorobenzyl)-2-oxoimidazolidin-1-yl)-N-((5-methylpyrazin-2-yl)methyl)isonicotinamide]
- melting point: 169 to 171 °C
- IC50 [1]: 80 nM

SMILES: Cn1cnc(CNC(=O)c2ccnc(N3CCN(Cc4ccc(F)cc4)C3=O)c2)c1 [Example 14.5, 2-(3-(4-fluorobenzyl)-2-oxoimidazolidin-1-yl)-N-((1-methyl-1H-imidazol-4-yl)methyl)isonicotinamide]
- melting point: 174 to 176 °C
- IC50 [1]: 190 nM

SMILES: Cc1cc(CNC(=O)c2ccnc(N3CCN(Cc4ccc(F)cc4)C3=O)c2)no1 [Example 14.10, 2-(3-(4-fluorobenzyl)-2-oxoimidazolidin-1-yl)-N-((5-methylisoxazol-3-yl)methyl)isonicotinamide]
- melting point: 153 to 155 °C
- IC50 [1]: 260 nM

SMILES: O=C(NCc1ccccn1)c1ccnc(N2CCN(Cc3ccc(F)cc3)C2=O)c1 [Example 15.3, 2-(3-(4-fluorobenzyl)-2-oxoimidazolidin-1-yl)-N-(pyridin-2-ylmethyl)isonicotinamide dihydrochloride]
- IC50 [1]: 70 nM

SMILES: O=C(NCc1ccc(F)cc1)c1ccnc(N2CCN(Cc3ccc(F)cc3)C2=O)c1 [Example 15.4, N-(4-fluorobenzyl)-2-(3-(4-fluorobenzyl)-2-oxoimidazolidin-1-yl)isonicotinamide]
- melting point: 173 to 175 °C
- IC50 [1]: 20 nM

SMILES: O=C(NCc1ccncc1)c1ccnc(N2CCN(CC3CC3)C2=O)c1 [Example 15.11, 2-(3-(cyclopropylmethyl)-2-oxoimidazolidin-1-yl)-N-(pyridin-4-ylmethyl)isonicotinamide]
- melting point: 160 to 162 °C
- IC50 [1]: 670 nM

SMILES: O=C(NCc1ccc(F)c(F)c1)c1ccnc(N2CCN(Cc3cccnc3)C2=O)c1 [Example 15.17, N-(3,4-difluorobenzyl)-2-(2-oxo-3-(pyridin-3-ylmethyl)imidazolidin-1-yl)isonicotinamide]
- melting point: 178 to 180 °C
- IC50 [1]: 260 nM

SMILES: O=C(NCc1nccs1)c1ccnc(N2CCN(Cc3ccc(C(F)(F)F)cc3)C2=O)c1 [Example 23, 2-(2-Oxo-3-(4-(trifluoromethyl)benzyl)imidazolidin-1-yl)-N-(thiazol-2-ylmethyl)isonicotinamide]
- melting point: 139 to 141 °C
- IC50 [1]: 10 nM

SMILES: Cc1cc(CNC(=O)c2ccnc(-n3cnn(Cc4ccc(F)c(F)c4)c3=O)c2)no1 [Example 24, 2-(1-(3,4-Difluorobenzyl)-5-oxo-1H-1,2,4-triazol-4(5H)-yl)-N-((5-methylisoxazol-3-yl)methyl)-isonicotinamide]
- melting point: 160 to 161 °C
- IC50 [1]: 20 nM

SMILES: O=C(NCc1ccccn1)c1ccnc(N2CCN(Cc3ccc(F)c(F)c3)C2=O)c1 [Example 25, 2-(3-(3,4-Difluorobenzyl)-2-oxoimidazolidin-1-yl)-N-(pyridin-2-ylmethyl)-isonicotinamide]
- melting point: 99 to 101 °C
- IC50 [1]: 20 nM

SMILES: O=C(NCc1ccccn1)c1ccnc(N2CCN(Cc3ccc(C(F)(F)F)cc3)C2=O)c1 [Example 26.12, 2-(2-Oxo-3-(4-(trifluoromethyl)benzyl)imidazolidin-1-yl)-N-(pyridin-2-ylmethyl)-isonicotinamide]
- melting point: 161 to 163 °C
- IC50 [1]: 10 nM

SMILES: Cc1cc(CNC(=O)c2ccnc(N3CCN(Cc4ccc(OC(F)(F)F)cc4)C3=O)c2)no1 [Example 26.13, N-((5-Methylisoxazol-3-yl)methyl)-2-(2-oxo-3-(4-(trifluoromethoxy)-benzyl)imidazolidin-1-yl)isonicotinamide]
- melting point: 129 to 130 °C
- IC50 [1]: 10 nM

SMILES: O=C(NCc1ccccn1)c1ccnc(N2CCN(Cc3ccc(OC(F)(F)F)cc3)C2=O)c1 [Example 26.15, 2-(2-Oxo-3-(4-(trifluoromethoxy)benzyl)imidazolidin-1-yl)-N-(pyridin-2-ylmethyl)-isonicotinamide]
- melting point: 123 to 125 °C
- IC50 [1]: 50 nM

SMILES: Cc1cc(CNC(=O)c2ccnc(N3CCN(Cc4ccc(C(F)(F)F)cc4)C3=O)c2)no1 [Example 26.18, N-((5-Methylisoxazol-3-yl)methyl)-2-(2-oxo-3-(4-(trifluoromethyl)-benzyl)imidazolidin-1-yl)isonicotinamide]
- melting point: 153 to 155 °C
- IC50 [1]: 10 nM

SMILES: O=C(NCc1nccs1)c1ccnc(-n2cnn(Cc3ccc(F)cc3)c2=O)c1 [Example 26.21, 2-(1-(4-Fluorobenzyl)-5-oxo-1H-1,2,4-triazol-4(5H)-yl)-N-(thiazol-2-ylmethyl)-isonicotinamide]
- melting point: 170 to 172 °C

SMILES: O=C(NCc1cncs1)c1ccnc(N2CCN(Cc3ccc(F)c(F)c3)C2=O)c1 [Example 26.24, 2-(3-(3,4-Difluorobenzyl)-2-oxoimidazolidin-1-yl)-N-(thiazol-5-ylmethyl)-isonicotinamide]
- melting point: 111 to 113 °C

SMILES: O=C(NCc1nccs1)c1ccnc(N2CCN(Cc3ccc(F)c(F)c3)C2=O)c1 [Example 26.25, 2-(3-(3,4-Difluorobenzyl)-2-oxoimidazolidin-1-yl)-N-(thiazol-2-ylmethyl)-isonicotinamide]
- melting point: 105 to 107 °C

SMILES: O=C(NCc1cncs1)c1ccnc(-n2cnn(Cc3ccc(F)cc3)c2=O)c1 [Example 26.26, 2-(1-(4-Fluorobenzyl)-5-oxo-1H-1,2,4-triazol-4(5H)-yl)-N-(thiazol-5-ylmethyl)-isonicotinamide]
- melting point: 181 to 183 °C

SMILES: O=C(NCc1nccs1)c1ccnc(-n2cnn(Cc3ccc(F)c(F)c3)c2=O)c1 [Example 26.28, 2-(1-(3,4-Difluorobenzyl)-5-oxo-1H-1,2,4-triazol-4(5H)-yl)-N-(thiazol-2-ylmethyl)-isonicotinamide]
- melting point: 161 to 163 °C

SMILES: O=C(NCc1ccccn1)c1ccnc(-n2cnn(Cc3ccc(F)c(F)c3)c2=O)c1 [Example 26.29, 2-(1-(3,4-Difluorobenzyl)-5-oxo-1H-1,2,4-triazol-4(5H)-yl)-N-(pyridin-2-ylmethyl)-isonicotinamide]
- IC50 [1]: 30 nM

SMILES: O=C(NCc1cnc(Cl)s1)c1ccnc(N2CCN(Cc3ccc(F)c(F)c3)C2=O)c1 [Example 26.33, N-((2-Chlorothiazol-5-yl)methyl)-2-(3-(3,4-difluorobenzyl)-2-oxoimidazolidin-1-yl)isonicotinamide]
- melting point: 161 to 163 °C

SMILES: O=C(NCc1cnc(Cl)s1)c1ccnc(N2CCN(Cc3ccc(OC(F)(F)F)cc3)C2=O)c1 [Example 26.34, N-((2-Chlorothiazol-5-yl)methyl)-2-(2-oxo-3-(4-(trifluoromethoxy)-benzyl)imidazolidin-1-yl)isonicotinamide]
- melting point: 184 to 186 °C
